From US6974794B1, “Hemoglobin-antioxidant conjugates” (Hemosol LP, priority 1999, dated 2005)

Assays:
erythrocytes = experiment: Hemolysis of erythrocytes mediated by peroxyl radicals (AAPH); protection of RBCs against lysis; format: cell-based; details: for AUC, % of control: relative to the corresponding control without Trolox, CO-ligated
Protocol: Blood was collected into heparinized tubes and erythrocytes were separated by centrifugation and washed 3 times with 10 volumes of PBS, pH 7.4. During the last washing, erythrocytes were centrifuged at 1000×g for 10 minutes to obtain a consistently packed cell preparation. The assay for hemolysis mediated by peroxyl radicals was conducted by a modified method of Miki et al.,(M. Miki, H. Tamai, M. Mino, Y. Yamamoto and E. Niki., Arch. Biochem. Biophys. 258:373-380 (1987)). Equal volumes of a 30% suspension of fresh erythrocytes in PBS pH 7.4, test sample, and 300 mM 2,2;-azo-bis(2-amidinopropane dihydrochloride) (AAPH, a radical generator) were combined in order. Mixtures were prepared under CO gas and test hemoglobin concentration in the RBC assay suspension was 12-13 mg/ml. Mixtures were held at 37° C., and aliquots were diluted 20-fold in PBS and centrifuged at 1000×g for 10 minutes. As a measure of Hb released due to RBC lysis, the absorbances of supernatants were measured at 540 nm after conversion of all Hb to CN-metHb according to the method of Tentori (Meth. Enzymology 75:707 (1981)). Supernatant Hb levels were corrected for Hb added in the test samples.
The results for two products are presented graphically in FIG. 1, a plot of relative RBC lysis against time for the various products. Products analyzed were prepared as described for reaction #6 (Hb-Trolox B) and reaction #7 (Hb-Trolox A) in Table 1 of Example 1. […] Relative protection was also determined by comparison of areas under the curves (AUC) obtained by plotting RBC lysate absorbance versus time. AUC is determined by the time of onset, rate, and overall extend of RBC lysis. Lower AUC values indicate greater protection of RBCs against lysis.
Using the method described in Example 2, the anti-oxidant activities of the two conjugates were measured. Samples were CO-ligated and concentration of the conjugates and controls in the RBC assay suspension was 12 mg/mL.
Using the method described in Example 1, the anti-oxidant activity of the polyOR-Hb-TX was measured. Products tested included oxygen and CO-ligated polyOR-Hb (no treatment with TX or EDC), CO-ligated product reserved prior to oxygenation as described above, and oxygenated product. All products were present in the RBC lysis assay suspension at 11.7 mg/mL.
Using the method described in Example 1, the antioxidant activities of the polyOR-Hb-TX products prepared under deoxy conditions (Example 8) and CO conditions (Example 6) were measured. Samples were CO-ligated and concentration of the conjugates and controls in the RBC assay suspension was 12 mg/mL. An equal concentration of polyOR-Hb, as well as two concentrations of Trolox alone representing 1× and 0.5× its solubility limit in the test solution, were evaluated.

[1] = P50 measured with a Hemox-Analyzer; details: 37° C.
Protocol: Trolox was conjugated to polyOR-Hb under deoxy conditions to prepare a product with a high P50, more suitable for use as an HBOC. PolyOR-Hb and MES buffer were deoxygenated by standard means. 0.78 g Trolox was reacted with 0.60 g EDC in 4 mL of acetonitrile for 10-20 minutes at room temperature. This solution was added to 2.04 g polyOR-Hb in 200 mL 120 mM MES pH 7.0. Two identical additions were made after 4 and 21 hours. At 27 hours following the first addition, the reaction mixture was charged with CO gas, filtered, concentrated and dialyzed extensively against PBS.

conscious rat = experiment: Hemodynamic effect following 10% topload infusion in conscious rat; format: in vivo; details: for Pre-infusion HR / baseline MAP prior to infusion: conscious Sprague-Dawley rat, before infusion; for baseline MAP prior to infusion: four animals per group; for HR after infusion / MAP following infusion: 10% topload infusion of 7.7 g/dL solution in lactated Ringer's
Protocol: Male Sprague-Dawley rats (250-350 g) were anesthetized with isoflurane on the day of the experiment. The right femoral artery and vein were cannulated. After 1.5 hour recovery from surgery, conscious animals residing in a metabolic cages were infused with either of two solutions: oxygenated polyOR-TX prepared in Example 6 or polyOR-Hb (no TX-EDC treatment; both solutions were 7.7 g/dL in lactated Ringer's solution). Infusion volume was equal to 10% of the animal's estimated blood volume. Mean arterial blood pressure (MAP) and heart rate (HR) were recorded 30 minutes prior to infusion to establish baseline values, during infusion and for 2 hours following infusion (FIGS. 3 and 4). Four animals were tested in each of the two groups. The baseline MAP prior to infusion was 101±4 mm Hg (polyOR-Hb) and 110±3 mm Hg (polyOR-Hb-TX). […] Pre-infusion HR were 407±17 and 394±17 beats per minute (bpm) in the polyOR-Hb and polyOR-Hb-TX groups, respectively.

[2] = Table 8, 11.7 mg/mL in RBC lysis assay suspension
[3] = Table 4, hemoglobin 0.20 mM (12-13 mg/ml) in RBC assay suspension, under CO, 37° C., bound Trolox 0.32 mM (A), 0.45 mM (B), lower AUC = greater protection
[4] = Table 7, CO-ligated samples, 12 mg/mL in RBC assay suspension

Question: Which “AUC relative to AAPH control (%)” value (erythrocytes; [2]) does the source give for “PolyOR-Hb-TX (CO form): CO-ligated product of Example 6 reserved prior to oxygenation” here?
Answer: Its value is 6%.

Question: With “PolyOR-Hb (Oxy form): oxygen-ligated polyOR-Hb, no treatment with TX or EDC” as the compound, how does the “AUC relative to AAPH control (%)” value (erythrocytes; [2]) read?
Answer: The value was 39%.

Question: Which P50 [1] does the source give for “PolyOR-Hb: o-raffinose cross-linked / polymerized hemoglobin, no treatment with TX or EDC [reference compound]” here?
Answer: Its P50 is 41 mm Hg.

Question: And the “AUC relative to AAPH control (%)” value (erythrocytes; Table 9, CO form, 12 mg/mL)?
Answer: The value was 28%.

Question: What about the “Pre-infusion HR” value (conscious rat) of the same compound?
Answer: Its value is 407±17 bpm.

Question: And the “baseline MAP prior to infusion” value (conscious rat)?
Answer: Its value is 101±4 mm Hg.

Question: And the HR after infusion (conscious rat; conscious rat)?
Answer: Its HR after infusion is 345±16 bpm.

Question: And the MAP following infusion (conscious rat; conscious rat)?
Answer: The MAP following infusion was 142±7 mm Hg.

Question: For “PolyOR-Hb-TX (Oxy form): oxygenated product of Example 6”, which “AUC relative to AAPH control (%)” value (erythrocytes; [2]) is on record?
Answer: The value was 15%.

Question: With “PolyOR-Hb (CO form): CO-ligated polyOR-Hb, no treatment with TX or EDC” as the compound, how does the “AUC relative to AAPH control (%)” value (erythrocytes; [2]) read?
Answer: Its value is 47%.

Question: Which “AUC relative to AAPH control (%)” value (erythrocytes; [3]) does the source give for “Free Hb (B): free (control) hemoglobin; product of the control reaction corresponding to Hb-Trolox B, no TX-EDC added” here?
Answer: Its value is 35%.

Question: With “3× TX-EDC (Reaction B): polyOR-Hb conjugated with Trolox by three additions of Trolox/EDC” as the compound, how does the “AUC, % of control” value (erythrocytes; 12 mg/mL) read?
Answer: Its value is 3%.

Question: What does the source list for “PolyOR-Hb-TX (from Example 6): Trolox conjugate of o-raffinose polymerized hemoglobin, large scale, prepared under CO conditions”?
Answer: P50 [1]: 16 mm Hg; AUC relative to AAPH control (%) (erythrocytes; Table 9, CO form, 12 mg/mL): 0%; Pre-infusion HR (conscious rat): 394±17 bpm; baseline MAP prior to infusion (conscious rat): 110±3 mm Hg; HR after infusion (conscious rat; conscious rat): 316±10 bpm; MAP following infusion (conscious rat; conscious rat): 151±1 mm Hg; Hemodynamic properties compared with polyOR-Hb (conscious rat; conscious rat, 10% topload infusion, result in words): did not alter the hemodynamic properties

Question: With “Free Hb (A): free (control) hemoglobin; product of the control reaction corresponding to Hb-Trolox A, no TX-EDC added” as the compound, how does the “AUC relative to AAPH control (%)” value (erythrocytes; [3]) read?
Answer: Its value is 39%.

Question: Which “AUC relative to AAPH control (%)” value (erythrocytes; [4]) does the source give for “1× Control: control product: polyOR-Hb reacted with EDC alone, no Trolox added, single addition” here?
Answer: Its value is 83%.

Question: For “PolyOR-Hb-TX (from Example 8): Trolox conjugated to polyOR-Hb under deoxy conditions”, which P50 [1] is on record?
Answer: The P50 was 40 mm Hg.

Question: And the “AUC relative to AAPH control (%)” value (erythrocytes; Table 9, CO form, 12 mg/mL)?
Answer: The value was 3%.

Question: For Cc1c(C)c2c(c(C)c1O)CCC(C)(C(=O)O)O2 (centres unmarked) [Free Trolox, 2,5,7,8-tetramethyl-2-carboxy-chroman-6-ol], which “AUC relative to AAPH control (%)” value (erythrocytes; Table 4, Trolox 0.50 mM, no hemoglobin) is on record?
Answer: The value was 88%.

Question: What about the “AUC relative to AAPH control (%)” value (erythrocytes; Table 9, Trolox alone 0.26 mM (0.5× its solubility limit)) of the same compound?
Answer: The value was 87%.

Question: And the “AUC relative to AAPH control (%)” value (erythrocytes; Table 9, Trolox alone 0.52 mM (1× its solubility limit))?
Answer: Its value is 70%.

Question: Which “AUC relative to AAPH control (%)” value (erythrocytes; [4]) does the source give for “1× TX-EDC (Reaction A): polyOR-Hb conjugated with Trolox by a single addition of Trolox/EDC” here?
Answer: The value was 27%.

Question: What about the “AUC, % of control” value (erythrocytes; 12 mg/mL) of the same compound?
Answer: The value was 33%.

Question: With “3× Control: control product: polyOR-Hb reacted with EDC alone, no Trolox added, three additions” as the compound, how does the “AUC relative to AAPH control (%)” value (erythrocytes; [4]) read?
Answer: The value was 69%.
